In PubChem BioAssay AID2060336 (Molecular Pharmacology Branch, DTP, NCI, 2025):

Test system: 958767-090-R-J1-PDC spheroid growth
Experiment: Anticancer human tumor 958767-090-R-J1-PDC patient-derived head and neck squamous carcinoma cell line growth inhibition [IpAb]
Conditions: spheroids with HUVEC and MSC; for IC50: curve of first compound; for viability, T/C: stronger effect = lower value
Procedure, shortened: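 Combinations with ipatasertib or abemaciclib were tested on tumour spheroids holding HUVEC (25%) and MSC (15%) alongside 60% malignant cells. Top concentration was at or near clinical Cmax (10 microM if undefined), descending in half-log steps.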

[1] = second compound 0.1 µM, first compound 0.0316 µM
[2] = second compound 0.1 µM, first compound 0.1 µM
[3] = second compound 0.1 µM, first compound 0.316 µM
[4] = second compound 0.1 µM, first compound 1 µM
[5] = second compound 0.1 µM, first compound 3.16 µM
[6] = second compound 0.1 µM, first compound 10 µM
[7] = second compound 0.316 µM, first compound 0.0316 µM
[8] = second compound 0.316 µM, first compound 0.1 µM
[9] = second compound 0.316 µM, first compound 0.316 µM
[10] = second compound 0.316 µM, first compound 1 µM
[11] = second compound 0.316 µM, first compound 3.16 µM
[12] = second compound 0.316 µM, first compound 10 µM
[13] = second compound 1 µM, first compound 0.0316 µM
[14] = second compound 1 µM, first compound 0.1 µM
[15] = second compound 1 µM, first compound 0.316 µM
[16] = second compound 1 µM, first compound 1 µM
[17] = second compound 1 µM, first compound 3.16 µM
[18] = second compound 1 µM, first compound 10 µM
[19] = second compound 3.16 µM, first compound 0.0316 µM
[20] = second compound 3.16 µM, first compound 0.1 µM
[21] = second compound 3.16 µM, first compound 0.316 µM
[22] = second compound 3.16 µM, first compound 1 µM
[23] = second compound 3.16 µM, first compound 3.16 µM
[24] = second compound 3.16 µM, first compound 10 µM
[25] = second compound 10 µM, first compound 0.0316 µM
[26] = second compound 10 µM, first compound 0.1 µM
[27] = second compound 10 µM, first compound 0.316 µM
[28] = second compound 10 µM, first compound 1 µM
[29] = second compound 10 µM, first compound 3.16 µM
[30] = second compound 10 µM, first compound 10 µM
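Further: spheroids exposed to agents for 7 days.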
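Wherever viability, T/C is given: 100% = DMSO vehicle control wells.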

## CC1(C)CCC(CN2CCN(c3ccc(C(=O)NS(=O)(=O)c4ccc(NCC5CCOCC5)c([N+](=O)[O-])c4)c(Oc4cnc5[nH]ccc5c4)c3)CC2)=C(c2ccc(Cl)cc2)C1 + CC(C)NCC(C(=O)N1CCN(c2ncnc3c2C(C)CC3O)CC1)c1ccc(Cl)cc1
Second compound 0.1 µM
  IC50: 5.1 µM
Second compound 0.316 µM
  IC50: 3.39 µM
Second compound 1 µM
  IC50: < 0.0316 µM
Second compound 3.16 µM
  IC50: < 0.0316 µM
Second compound 10 µM
  IC50: < 0.0316 µM
[1]
  viability, T/C: 78.3%
[2]
  viability, T/C: 66.5%
[3]
  viability, T/C: 62.5%
[4]
  viability, T/C: 87.9%
[5]
  viability, T/C: 103%
[6]
  viability, T/C: 8.08%
[7]
  viability, T/C: 60.8%
[8]
  viability, T/C: 54.9%
[9]
  viability, T/C: 44.4%
[10]
  viability, T/C: 44.4%
[11]
  viability, T/C: 60.4%
[12]
  viability, T/C: 4.07%
[13]
  viability, T/C: 45.1%
[14]
  viability, T/C: 47.5%
[15]
  viability, T/C: 40.8%
[16]
  viability, T/C: 36%
[17]
  viability, T/C: 38.2%
[18]
  viability, T/C: 2.04%
[19]
  viability, T/C: 37.2%
[20]
  viability, T/C: 35.3%
[21]
  viability, T/C: 35.6%
[22]
  viability, T/C: 29.3%
[23]
  viability, T/C: 37.1%
[24]
  viability, T/C: 2.03%
[25]
  viability, T/C: 34.3%
[26]
  viability, T/C: 27%
[27]
  viability, T/C: 24.2%
[28]
  viability, T/C: 28.8%
[29]
  viability, T/C: 30.7%
[30]
  viability, T/C: 0.98%

## CCCS(=O)(=O)Nc1ccc(F)c(C(=O)c2c[nH]c3ncc(-c4ccc(Cl)cc4)cc23)c1F + CC(C)NCC(C(=O)N1CCN(c2ncnc3c2C(C)CC3O)CC1)c1ccc(Cl)cc1
Second compound 0.1 µM
  IC50: > 10 µM
Second compound 0.316 µM
  IC50: 9.06 µM
Second compound 1 µM
  IC50: 5.37 µM
Second compound 3.16 µM
  IC50: 3.95 µM
Second compound 10 µM
  IC50: < 0.0316 µM
[1]
  viability, T/C: 93.3%
[2]
  viability, T/C: 89.6%
[3]
  viability, T/C: 94.7%
[4]
  viability, T/C: 95.9%
[5]
  viability, T/C: 86.9%
[6]
  viability, T/C: 73.9%
[7]
  viability, T/C: 67.9%
[8]
  viability, T/C: 78.2%
[9]
  viability, T/C: 74.1%
[10]
  viability, T/C: 59.6%
[11]
  viability, T/C: 72.5%
[12]
  viability, T/C: 48.2%
[13]
  viability, T/C: 68.4%
[14]
  viability, T/C: 61.2%
[15]
  viability, T/C: 59.8%
[16]
  viability, T/C: 60.2%
[17]
  viability, T/C: 60.8%
[18]
  viability, T/C: 37.7%
[19]
  viability, T/C: 59.6%
[20]
  viability, T/C: 56.9%
[21]
  viability, T/C: 51%
[22]
  viability, T/C: 51.7%
[23]
  viability, T/C: 54.4%
[24]
  viability, T/C: 32.7%
[25]
  viability, T/C: 46.1%
[26]
  viability, T/C: 50.3%
[27]
  viability, T/C: 54.9%
[28]
  viability, T/C: 42.3%
[29]
  viability, T/C: 40.8%
[30]
  viability, T/C: 14.6%

## COc1c(OCCCN2CCOCC2)ccc2c3n(c(=NC(=O)c4cnc(N)nc4)nc12)CCN3 + CC(C)NCC(C(=O)N1CCN(c2ncnc3c2C(C)CC3O)CC1)c1ccc(Cl)cc1
Second compound 0.1 µM
  IC50: 0.0141 µM
Second compound 0.316 µM
  IC50: 0.00443 µM
Second compound 1 µM
  IC50: < 0.00316 µM
Second compound 3.16 µM
  IC50: < 0.00316 µM
Second compound 10 µM
  IC50: < 0.00316 µM
Second compound 0.1 µM, first compound 0.00316 µM
  viability, T/C: 78%
Second compound 0.1 µM, first compound 0.01 µM
  viability, T/C: 55.2%
[1]
  viability, T/C: 36.6%
[2]
  viability, T/C: 22.6%
[3]
  viability, T/C: 9.18%
[4]
  viability, T/C: 4.85%
Second compound 0.316 µM, first compound 0.00316 µM
  viability, T/C: 52.9%
Second compound 0.316 µM, first compound 0.01 µM
  viability, T/C: 43.2%
[7]
  viability, T/C: 25.7%
[8]
  viability, T/C: 15.6%
[9]
  viability, T/C: 6.21%
[10]
  viability, T/C: 3.9%
Second compound 1 µM, first compound 0.00316 µM
  viability, T/C: 42.1%
Second compound 1 µM, first compound 0.01 µM
  viability, T/C: 32.6%
[13]
  viability, T/C: 26.6%
[14]
  viability, T/C: 15.5%
[15]
  viability, T/C: 5.63%
[16]
  viability, T/C: 3.82%
Second compound 3.16 µM, first compound 0.00316 µM
  viability, T/C: 41.7%
Second compound 3.16 µM, first compound 0.01 µM
  viability, T/C: 24.8%
[19]
  viability, T/C: 20.9%
[20]
  viability, T/C: 11.5%
[21]
  viability, T/C: 6.46%
[22]
  viability, T/C: 3.61%
Second compound 10 µM, first compound 0.00316 µM
  viability, T/C: 28.3%
Second compound 10 µM, first compound 0.01 µM
  viability, T/C: 19.8%
[25]
  viability, T/C: 14.1%
[26]
  viability, T/C: 9.67%
[27]
  viability, T/C: 4.23%
[28]
  viability, T/C: 3.22%

## Cc1nc(NC(=O)N2CCCC2C(N)=O)sc1-c1ccnc(C(C)(C)C(F)(F)F)c1 (stereo not given) + CC(C)NCC(C(=O)N1CCN(c2ncnc3c2C(C)CC3O)CC1)c1ccc(Cl)cc1
Second compound 0.1 µM
  IC50: 0.136 µM
Second compound 0.316 µM
  IC50: 0.0635 µM
Second compound 1 µM
  IC50: < 0.0316 µM
Second compound 3.16 µM
  IC50: < 0.0316 µM
Second compound 10 µM
  IC50: < 0.0316 µM
[1]
  viability, T/C: 72.7%
[2]
  viability, T/C: 49.6%
[3]
  viability, T/C: 38.1%
[4]
  viability, T/C: 34.2%
[5]
  viability, T/C: 20.7%
[6]
  viability, T/C: 12.2%
[7]
  viability, T/C: 54.4%
[8]
  viability, T/C: 49.1%
[9]
  viability, T/C: 32.3%
[10]
  viability, T/C: 26.7%
[11]
  viability, T/C: 16.2%
[12]
  viability, T/C: 11.1%
[13]
  viability, T/C: 46.6%
[14]
  viability, T/C: 32.7%
[15]
  viability, T/C: 30.9%
[16]
  viability, T/C: 20.9%
[17]
  viability, T/C: 15.6%
[18]
  viability, T/C: 9.52%
[19]
  viability, T/C: 38.4%
[20]
  viability, T/C: 28.4%
[21]
  viability, T/C: 24.2%
[22]
  viability, T/C: 18.3%
[23]
  viability, T/C: 14.4%
[24]
  viability, T/C: 7.8%
[25]
  viability, T/C: 31.6%
[26]
  viability, T/C: 24.6%
[27]
  viability, T/C: 16.5%
[28]
  viability, T/C: 10.8%
[29]
  viability, T/C: 9.96%
[30]
  viability, T/C: 5.52%
